Patent publication US8814930B2, “Biodegradable endoprosthesis and methods for their fabrication” (Elixir Medical Corporation, priority 2007, dated 2014)

Experiment: Pharmacokinetic release profile of novolimus from a stent (FIG. 35)
Type: in vivo

therapeutic tissue drug concentration (at 90 days): 0.5 ng/mg | drug released (in one month, from a stent): over 85%
Compound: CO[C@@H]1C[C@H](C[C@@H](C)[C@@H]2CC(=O)[C@H](C)/C=C(\C)[C@@H](O)[C@@H](OC)C(=O)[C@H](C)C[C@H](C)/C=C/C=C/C=C(\C)[C@@H](O)C[C@@H]3CC[C@@H](C)[C@@](O)(O3)C(=O)C(=O)N3CCCC[C@H]3C(=O)O2)CC[C@H]1O [novolimus, 16-O-desmethyl-rapamycin]
